{"source": "patent US20090246265A1", "about": "“ABUSE DETERRENT TRANSDERMAL FORMULATIONS OF OPIATE AGONISTS AND AGONIST-ANTAGONISTS” (AllTranz Inc., priority 2008, published 2009)", "key": {"[1]": {"assay": "In vitro diffusion (permeation and accumulation) studies through human skin, PermeGear flow through diffusion apparatus"}, "[2]": {"assay": "Release of buprenorphine and naltrexone from patch placed in methanol or ethanol", "format": "physicochemical", "details": "patch with 2% buprenorphine", "text": "Methanol and ethanol are two media that could potentially be used to dissolve a patch for the purpose of extracting the opiate in the patch by a potential abuse. Thus, an antagonist complex such as NTX-CAP should release in a rapid manner in order to be able to block the opiates effect if injected or ingested. FIG. 6 is a representative profile of the release characteristics of naltrexone coated with cellulose acetate phthalate in methanol and ethanol.\nThis ratio corresponds to the amount of naltrexone necessary to cause a narcotic blockade at the opiate receptors."}, "[3]": {"assay": "Solubility in the pressure sensitive adhesive matrix", "format": "physicochemical", "details": "Durotak Elite 87-900A PSA", "experimental": "Thus, the suspension was mixed and poured to 20 mil thickness.\nThus, the suspension and 3 solutions of NTX prodrugs were mixed and poured to 20 mil thickness.\nThree patch formulations for testing were prepared. The patch formulations included naltrexone-HCl, naltrexone-HCl coated with cellulose acetate phthalate and an isobutyryl ester prodrug of naltrexone. The naltrexone-HCl and cellulose acetate phthalate complex was prepared using the methods described in Example 2. The patch formulations also included buprenorphine in a concentration of 2% w/w or 20 mg of buprenorphine per […] of pressure sensitive adhesive. […] The PSA admixture was poured onto Scotch PAK 1022 Release Liner 3.0 mil 3M™, spread to an even 20 mil thickness with an 8 path wet film applicator by Gardco®. The matrices were allowed to dry at 40° C. and finally the Cotran 9715 Film 3M™ as a backing membrane was applied."}, "[4]": {"details": "Example 7, NTX•HCl and buprenorphine base bi-layer patch"}, "[5]": {"details": "Example 7, NTX•HCl and buprenorphine base bi-layer patch, after 24 h"}, "[6]": {"details": "Example 8, NTX•HCl and buprenorphine base bi-layer patch, after 24 h"}, "[7]": {"details": "Example 8, NTX•HCl and buprenorphine bi-layer patch, n=1"}, "[8]": {"details": "Example 7, NTX•HCl and buprenorphine base bi-layer patch, 24 h"}, "[9]": {"details": "Example 8, NTX•HCl and buprenorphine base bi-layer patch, 24 h"}, "[10]": {"details": "Example 7, NTX-CAP and buprenorphine base bi-layer patch"}, "[11]": {"details": "Example 8, NTX-CAP and buprenorphine base bi-layer patch"}}, "note": "Entries after “also recorded” stand apart in the source; their conditions may differ. Structures can show the parent of a compound that is named as a salt.", "data": [{"smiles": "O=C1CC[C@@]2(O)[C@H]3Cc4ccc(O)c5c4[C@@]2(CCN3CC2CC2)[C@H]1O5", "note": "[NTX•HCl, naltrexone hydrochloride]", "values": [{"measurement": "Flux", "setting": "[1]; [4]", "result": "0.02 ± 0.03", "unit": "nmol/cm^2/h"}, {"measurement": "Lag time", "setting": "[1]; [4]", "result": 14.6, "unit": "NA* h"}, {"measurement": "Cumulative", "setting": "[1]; Example 7, NTX•HCl and buprenorphine base bi-layer patch, 24 h, listed as NTX•HCl from bi-layer, hydrochloride", "result": "0.3 ± 0.5", "unit": "nmol"}, {"measurement": "Drug in skin", "setting": "[1]; [5]", "result": "0.29 ± 0.03", "unit": "µmol/g"}, {"measurement": "Cumulative", "setting": "[1]; Example 8, NTX•HCl and buprenorphine base bi-layer patch, 24 h, listed as NTX•HCl from bi-layer, hydrochloride", "result": 2.3, "unit": "nmol"}, {"measurement": "Drug in skin", "setting": "[1]; [6]", "result": 0.30, "unit": "µmol/g"}, {"measurement": "Flux", "setting": "[1]; [7]", "result": 0.0, "unit": "NA* nmol/cm^2/h"}, {"measurement": "Release ratio of BUP:NTX", "setting": "[2]; ethanol, 0 min", "result": 9.9}, {"measurement": "Release ratio of BUP:NTX", "setting": "[2]; ethanol, 10 min", "result": 7.2}, {"measurement": "Release ratio of BUP:NTX", "setting": "[2]; ethanol, 30 min", "result": 4.6}, {"measurement": "Release ratio of BUP:NTX", "setting": "[2]; ethanol, 60 min", "result": 4.1}, {"measurement": "Release ratio of BUP:NTX", "setting": "[2]; methanol, 0 min", "result": 7.8}, {"measurement": "Release ratio of BUP:NTX", "setting": "[2]; methanol, 10 min", "result": 6.5}, {"measurement": "Release ratio of BUP:NTX", "setting": "[2]; methanol, 30 min", "result": 6.5}, {"measurement": "Release ratio of BUP:NTX", "setting": "[2]; methanol, 60 min", "result": 6.1}, {"measurement": "solubility in pressure sensitive adhesive (matrix)", "setting": "[3]; hydrochloride", "result": "Neither NTX.HCl nor CAP-NTX were soluble; also recorded: not soluble"}, {"measurement": "solubility in pressure sensitive adhesive (matrix)", "setting": "[3]; listed as naltrexone-HCl, hydrochloride", "result": "suspensions"}]}, {"smiles": "O=C1CC[C@@]2(O)[C@H]3Cc4ccc(O)c5c4[C@@]2(CCN3CC2CC2)[C@H]1O5", "note": "[naltrexone]", "values": [{"measurement": "Cumulative", "setting": "[1]; Example 6, bi-layer patch with NTX only, 24 hours", "result": 7.3, "unit": "nmol"}, {"measurement": "Cumulative", "setting": "[1]; [8]", "result": 0.3, "unit": "nmol"}, {"measurement": "Cumulative", "setting": "[1]; [9]", "result": 2.3, "unit": "nmol"}, {"measurement": "solubility in pressure sensitive adhesive (matrix)", "setting": "[3]", "result": "not soluble"}]}, {"smiles": "CO[C@@]12CC[C@@]3(C[C@@H]1[C@](C)(O)C(C)(C)C)[C@H]1Cc4ccc(O)c5c4[C@@]3(CCN1CC1CC1)[C@H]2O5", "note": "[BUP from bi-layer, buprenorphine]", "values": [{"measurement": "Flux", "setting": "[1]; [10]", "result": "0.39 ± 0.05", "unit": "nmol/cm^2/h"}, {"measurement": "Lag time", "setting": "[1]; [10]", "result": "10.6 ± 0.28", "unit": "h"}, {"measurement": "Cumulative", "setting": "[1]; Example 7, NTX-CAP and buprenorphine base bi-layer patch, 24 h", "result": "9.3 ± 1.2", "unit": "nmol"}, {"measurement": "Drug in skin", "setting": "[1]; Example 7, NTX-CAP and buprenorphine base bi-layer patch, after 24 h", "result": "0.43 ± 0.01", "unit": "µmol/g"}, {"measurement": "Flux", "setting": "[1]; [4]", "result": "0.23 ± 0.06", "unit": "nmol/cm^2/h"}, {"measurement": "Lag time", "setting": "[1]; [4]", "result": "10.0 ± 2.6", "unit": "h"}, {"measurement": "buprenorphine flux, times higher than naltrexone", "setting": "[1]; [4]", "result": 11.2, "unit": "times"}, {"measurement": "Cumulative", "setting": "[1]; [8]", "result": "5.5 ± 0.7", "unit": "nmol"}, {"measurement": "Drug in skin", "setting": "[1]; [5]", "result": "0.35 ± 0.01", "unit": "µmol/g"}, {"measurement": "Cumulative", "setting": "[1]; [11]", "result": "24.6 ± 10.8", "unit": "nmol"}, {"measurement": "Drug in skin", "setting": "[1]; [11]", "result": "0.50 ± 0.04", "unit": "µmol/g"}, {"measurement": "Flux", "setting": "[1]; [11]", "result": "1.05 ± 0.65", "unit": "nmol/cm^2/h"}, {"measurement": "Lag time", "setting": "[1]; [11]", "result": "8.2 ± 0.6", "unit": "h"}, {"measurement": "total permeation", "setting": "[1]; [11]", "result": 11.65, "unit": "µg"}, {"measurement": "Cumulative", "setting": "[1]; [9]", "result": 18.5, "unit": "nmol"}, {"measurement": "Drug in skin", "setting": "[1]; [6]", "result": 0.37, "unit": "µmol/g"}, {"measurement": "Flux", "setting": "[1]; [7]", "result": 0.6, "unit": "NA* nmol/cm^2/h"}, {"measurement": "Lag time", "setting": "[1]; [7]", "result": 9.5, "unit": "h"}, {"measurement": "solubility in pressure sensitive adhesive (matrix)", "setting": "[3]", "result": "freely soluble"}]}]}
